This is an account of results in article PMC9967789, “Green Drug Discovery: Novel Fragment Space from the Biomass-Derived Molecule Dihydrolevoglucosenone (Cyrene^TM)” (Molecules, 2023).

Details of series [1]: method as in doi:10.1021/acssuschemeng.6b02115. The settings on record: cited from earlier work.
The conditions of series [2]: cited from earlier work.
Series [3] in a line: Nephelometry solubility in HBSS buffer containing 1% DMSO. Type of series: physicochemical. The settings on record: for concentration up to which no signs of precipitation or aggregation are shown: in triplo. The method, then: Nephelometry was performed using NEPHELOstar Plus equipment (BMG LABTECH, Ortenberg, Germany). Kaolin was used as the internal standard, and compounds were added to HBSS buffer as DMSO stock solution to a final concentration of 1% DMSO and a total volume of 200 μL. Precipitation or aggregation was considered significant when average values exceeded three times the standard deviation of the blanks. Blank values were omitted if they exceeded three times the standard deviation of the 24 blanks that were measured on each 96-well plate. All compounds were tested in triplo, and wells of suspected outliers were visually inspected before omitting any outliers. Data were processed in Prism version 8.0 (GraphPad, San Diego, CA, USA).

Series [4] is described as follows: Incubation experiment: fragment integrity by 1H NMR in DMSO-d6. The series is classed as physicochemical. The following applies: 10^−2 M in DMSO-d6, NMR, three weeks at room temperature or frozen. The procedure:
(§1) LCMS studies: A 10 mM solution in DMSO was diluted with HBSS buffer to 0.10 mM. Fragment integrity was measured by LCMS at regular intervals (not shown) up to 20 d in the dark at rt, or after 20 d of freezing. NMR studies: A 10 mM solution in DMSO-d6 was prepared. Fragment integrity was measured with ^1H NMR analysis at regular intervals (not shown) up to 20 d in the dark at rt, or after 20 d of freezing.

Series [5] can be described thus: Incubation experiment: fragment integrity by LCMS in HBSS buffer/1% DMSO. The series is classed as physicochemical. The following applies: 10^−4 M in HBSS buffer/1% DMSO. The procedure: as §1

Take `O=C1CC[C@H]2CO[C@@H]1O2` [Cyrene, dihydrolevoglucosenone]: the toxicity entry in series [1] is given as “low toxicity”. In series [2], the water solubility result was “highly water-soluble”.
Consider `O=C(Nc1ccc(Cl)cc1)OC1CC[C@H]2CO[C@@H]1O2` (some centres unmarked) [Compound 7c], for which, in series [3], the “concentration at which the precipitate/aggregate starts to form” value is reported as 10^−3 M and the “concentration up to which no signs of precipitation or aggregation are shown” value (“concentration up to which no signs” below) was 320 µM.
As to `Cn1ccc(CNC2CC[C@H]3CO[C@@H]2O3)n1.O=C(O)CCC(=O)O` (some centres unmarked) [Compound 8f], the “concentration up to which no signs” value in series [3] was found to be 3200 µM.
On the same count and under the same terms, the result for `O=S(=O)(NC1CC[C@H]2CO[C@@H]1O2)C1CC1` (some centres unmarked) [Compound 12f] reads 320 µM.
As to `C1COC2(CCC3COC2O3)O1` (centres unmarked) [glycol acetal of Cyrene], in series [2], the miscibility with water entry is listed as “water-miscible”.
As to `O=C1CC2COC(C1)O2` (centres unmarked) [iso-Cyrene], the “concentration of solutions obtained in water” value in series [2] (water) was 10000 µM.
On to `COc1ccc(C(=O)NC2CC[C@H]3CO[C@@H]2O3)cc1` (some centres unmarked) [Compound 9h], for which the “decomposition in DMSO” value in series [4] is given as “no significant decomposition”. In series [5] (three weeks at room temperature or frozen), the “reactivity on incubation in buffer” value is “no or only minor reactivity”.
For `O=C(NC1CC[C@H]2CO[C@@H]1O2)c1cccs1` (some centres unmarked) [Compound 9p], in series [3], the “concentration up to which no signs” value was found to be 1000 µM.
On the same count and under the same terms, the figure for `Cc1ccc(COC2CC[C@H]3CO[C@@H]2O3)cc1` (some centres unmarked) [Compound 5c] is 1000 µM.
For `Clc1cccc(Cl)c1CNC1CC[C@H]2CO[C@@H]1O2` (some centres unmarked) [Compound 8h], the “decomposition in DMSO” value in series [4] was “no significant decomposition”. In addition, the byproduct formed result in series [5] (three weeks at room temperature) is “ca. 2.5%”.
